From ChEMBL document CHEMBL5634130, “Exploring the structural-activity relationship of hexahydropyrazino[1,2-d]pyrido[3,2-b][1,4]oxazine derivatives as potent and orally-bioavailable PARP7 inhibitors” (Eur J Med Chem, 2023)
Values after ≈ are worked out from the molar mass of the structure shown. Active and inactive are the calls of the source. The rule behind the calls is not given here.

Assays:
[1] = biological target: T1, Protein mono-ADP-ribosyltransferase TIPARP (Homo sapiens, UniProt Q7Z3E1); experiment: Inhibition of PARP7 (unknown origin) using histone as substrate incubated for 1 hr by chemiluminescence assay
T1 sequence (Q7Z3E1 whole entry): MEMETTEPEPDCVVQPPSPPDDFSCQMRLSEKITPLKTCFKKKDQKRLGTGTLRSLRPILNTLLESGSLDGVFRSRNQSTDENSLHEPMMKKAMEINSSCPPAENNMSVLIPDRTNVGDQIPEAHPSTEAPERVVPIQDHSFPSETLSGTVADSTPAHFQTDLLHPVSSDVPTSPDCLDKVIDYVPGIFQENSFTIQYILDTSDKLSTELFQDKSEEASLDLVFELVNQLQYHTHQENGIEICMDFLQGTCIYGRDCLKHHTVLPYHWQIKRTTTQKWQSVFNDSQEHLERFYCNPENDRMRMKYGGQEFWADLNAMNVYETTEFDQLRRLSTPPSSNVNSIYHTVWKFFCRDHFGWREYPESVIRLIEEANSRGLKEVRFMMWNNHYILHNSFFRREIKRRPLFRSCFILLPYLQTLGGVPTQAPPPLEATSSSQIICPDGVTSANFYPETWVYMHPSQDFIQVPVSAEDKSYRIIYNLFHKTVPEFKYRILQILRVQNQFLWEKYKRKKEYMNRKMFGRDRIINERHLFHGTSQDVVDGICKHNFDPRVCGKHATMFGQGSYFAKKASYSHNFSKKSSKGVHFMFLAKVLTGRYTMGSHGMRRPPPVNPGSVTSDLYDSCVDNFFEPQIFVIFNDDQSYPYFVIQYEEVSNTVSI

MDA-MB-436 [2] = experiment: Antiproliferative activity against human MDA-MB-436 cells assessed as inhibition of cell viability at 0.1 uM incubated for 7 days by luminescence based assay; type: functional; settings: time 7.0 day
MDA-MB-436 [3] = experiment: Antiproliferative activity against human MDA-MB-436 cells assessed as inhibition of cell viability incubated for 7 days by luminescence based assay; type: functional; settings: MDA-MB-436, 168 h
[4] = biological target: Poly [ADP-ribose] polymerase 1 (Homo sapiens, UniProt P09874); experiment: Inhibition of PARP1 (unknown origin)
[5] = biological target: Poly [ADP-ribose] polymerase 2 (Homo sapiens, UniProt Q9UGN5); experiment: Inhibition of PARP2 (unknown origin)
[6] = biological target: T2, Protein mono-ADP-ribosyltransferase PARP11 (Homo sapiens, UniProt Q9NR21); experiment: Inhibition of PARP11 (unknown origin)
T2 sequence (Q9NR21 whole entry): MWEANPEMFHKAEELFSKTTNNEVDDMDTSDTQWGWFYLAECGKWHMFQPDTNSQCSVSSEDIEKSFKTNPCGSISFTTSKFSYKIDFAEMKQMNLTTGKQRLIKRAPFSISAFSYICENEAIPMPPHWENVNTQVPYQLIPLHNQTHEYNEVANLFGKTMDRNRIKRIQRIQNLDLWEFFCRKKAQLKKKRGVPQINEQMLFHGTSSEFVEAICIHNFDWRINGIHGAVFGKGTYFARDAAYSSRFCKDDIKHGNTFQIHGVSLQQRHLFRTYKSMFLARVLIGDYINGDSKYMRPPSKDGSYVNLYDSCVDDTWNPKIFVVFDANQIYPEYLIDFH

[7] = biological target: Protein mono-ADP-ribosyltransferase PARP14 (Homo sapiens, UniProt Q460N5); experiment: Inhibition of PARP14 (unknown origin)
[8] = Clearance in fasted ICR mouse at 2 mg/kg, iv measured for 24 hrs by LC-MS analysis; type: ADME, organism-based; settings: in vivo
[9] = AUC in fasted ICR mouse at 2 mg/kg, iv measured for 24 hrs by LC-MS analysis; type: ADME, organism-based; settings: in vivo
[10] = Volume of distribution at steady state in fasted ICR mouse at 2 mg/kg, iv measured for 24 hrs by LC-MS analysis; type: ADME, organism-based; settings: in vivo, read-out: Vdss
[11] = Tmax in fasted ICR mouse at 10 mg/kg, po measured for 24 hrs by LC-MS analysis; type: ADME, organism-based; settings: in vivo
[12] = AUC in fasted ICR mouse at 10 mg/kg, po measured for 24 hrs by LC-MS analysis; type: ADME, organism-based; settings: in vivo
[13] = Oral bioavailability in fasted ICR mouse at 10 mg/kg measured for 24 hrs by LC-MS analysis; type: ADME, organism-based; settings: in vivo
[14] = Toxicity in […] SCID mouse model xenografted with human NCI-H1373 cells assessed as animal death at 30 mg/kg, po measured for 21 days; type: organism-based; settings: in vivo, 504 h, time 21 day
[15] = Clearance in fasted Beagle dog at 2 mg/kg, iv measured for 24 hrs by LC-MS analysis; type: ADME, organism-based, Canis lupus familiaris; settings: in vivo
[16] = Half life in fasted Beagle dog at 2 mg/kg, iv measured for 24 hrs by LC-MS analysis; type: ADME, organism-based, Canis lupus familiaris; settings: in vivo
[17] = AUC in fasted Beagle dog at 2 mg/kg, iv measured for 24 hrs by LC-MS analysis; type: ADME, organism-based, Canis lupus familiaris; settings: Beagle, in vivo
[18] = Volume of distribution at steady state in fasted Beagle dog at 2 mg/kg, iv measured for 24 hrs by LC-MS analysis; type: ADME, organism-based, Canis lupus familiaris; settings: in vivo, read-out: Vdss
[19] = Cmax in fasted Beagle dog at 10 mg/kg, po measured for 24 hrs by LC-MS analysis; type: ADME, organism-based, Canis lupus familiaris; settings: in vivo
[20] = Thermodynamic solubility of compound at pH 2; type: physicochemical; settings: buffer, read-out: Therm_solubility
[21] = Thermodynamic solubility of compound at pH 7.4; type: physicochemical; settings: buffer, read-out: Therm_solubility
[22] = Apparent permeability across basolateral to apical side in MDCKII-MDR1 cells incubated for 2 hrs by LC-MS analysis; type: ADME, cell-based, Canis lupus familiaris; settings: dog, MDCK-MDR1
[23] = Passive permeability in MDCKII-MDR1 cells incubated for 2 hrs by LC-MS analysis; type: ADME, cell-based, Canis lupus familiaris; settings: dog, MDCK-MDR1, read-out: permeability
[24] = Plasma protein binding in human at 2 uM incubated for 1 hr by LC/MS analysis; type: ADME, cell-free; settings: read-out: PPB (converted)
[25] = Plasma protein binding in monkey at 2 uM incubated for 1 hr by LC/MS analysis; type: ADME, cell-free, Macaca mulatta; settings: rhesus monkey, read-out: PPB (converted)
[26] = Plasma protein binding in mouse at 2 uM incubated for 1 hr by LC/MS analysis; type: ADME, cell-free; settings: read-out: PPB (converted)
[27] = Metabolic stability in human liver microsomes assessed as intrinsic clearance preincubated for 5 mins followed by NADPH addition measured for 1 hr by LC-MS analysis; type: ADME, Microsome; settings: time 65 min, read-out: CLH
[28] = Metabolic stability in rat liver microsomes assessed as intrinsic clearance preincubated for 5 mins followed by NADPH addition measured for 1 hr by LC-MS analysis; type: ADME, Microsome; settings: time 65 min, read-out: CLH
Cytochrome P450 2C9 = Cytochrome P450 2C9 (Homo sapiens, UniProt P11712); experiment: Inhibition of CYP2C9 in human liver microsomes using diclofenac as substrate preincubated for 10 mins followed by substrate addition measured for 30 mins by LC-MS analysis; type: ADME, Microsome
Cytochrome P450 2C19 = Cytochrome P450 2C19 (Homo sapiens, UniProt P33261); experiment: Inhibition of CYP2C19 in human liver microsomes using mephenytoin as substrate preincubated for 10 mins followed by substrate addition measured for 30 mins by LC-MS analysis; type: ADME, Microsome
Cytochrome P450 3A4 = Cytochrome P450 3A4 (Homo sapiens, UniProt P08684); experiment: Inhibition of CYP3A4 in human liver microsomes using midazolam as substrate preincubated for 10 mins followed by substrate addition measured for 30 mins by LC-MS analysis; type: ADME, Microsome
Chain of Cytochrome P450 3A4 (P08684 whole entry): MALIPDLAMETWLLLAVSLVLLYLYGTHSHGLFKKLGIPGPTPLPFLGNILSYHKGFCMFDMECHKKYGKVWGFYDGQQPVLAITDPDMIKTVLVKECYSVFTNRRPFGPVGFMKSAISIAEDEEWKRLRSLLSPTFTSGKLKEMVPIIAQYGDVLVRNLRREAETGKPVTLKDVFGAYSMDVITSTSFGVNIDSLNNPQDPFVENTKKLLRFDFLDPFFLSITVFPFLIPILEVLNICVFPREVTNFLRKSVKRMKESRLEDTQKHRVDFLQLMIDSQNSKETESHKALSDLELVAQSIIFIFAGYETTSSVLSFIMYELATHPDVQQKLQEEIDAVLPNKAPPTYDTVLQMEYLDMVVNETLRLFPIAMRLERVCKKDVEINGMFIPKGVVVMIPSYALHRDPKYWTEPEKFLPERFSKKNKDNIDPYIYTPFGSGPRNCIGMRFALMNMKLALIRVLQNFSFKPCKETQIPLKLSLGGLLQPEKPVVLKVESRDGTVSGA

Chain of Poly [ADP-ribose] polymerase 2 (Q9UGN5 whole entry): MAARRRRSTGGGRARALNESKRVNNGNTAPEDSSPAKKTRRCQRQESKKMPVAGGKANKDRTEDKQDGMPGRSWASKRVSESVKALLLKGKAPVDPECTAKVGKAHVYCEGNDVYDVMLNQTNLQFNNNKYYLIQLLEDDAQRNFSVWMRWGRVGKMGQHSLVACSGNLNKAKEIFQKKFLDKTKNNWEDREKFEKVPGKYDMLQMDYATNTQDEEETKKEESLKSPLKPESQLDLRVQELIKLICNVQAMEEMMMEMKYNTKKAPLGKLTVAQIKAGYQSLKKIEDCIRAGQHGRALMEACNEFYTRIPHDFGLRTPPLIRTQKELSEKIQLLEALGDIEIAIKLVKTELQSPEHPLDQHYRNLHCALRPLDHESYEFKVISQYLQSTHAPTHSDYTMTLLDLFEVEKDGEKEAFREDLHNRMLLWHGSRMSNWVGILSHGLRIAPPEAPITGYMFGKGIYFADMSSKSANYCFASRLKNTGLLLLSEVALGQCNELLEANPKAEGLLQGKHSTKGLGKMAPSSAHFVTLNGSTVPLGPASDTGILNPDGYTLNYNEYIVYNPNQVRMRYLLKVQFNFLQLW
Chain of Cytochrome P450 2C9 (P11712 whole entry): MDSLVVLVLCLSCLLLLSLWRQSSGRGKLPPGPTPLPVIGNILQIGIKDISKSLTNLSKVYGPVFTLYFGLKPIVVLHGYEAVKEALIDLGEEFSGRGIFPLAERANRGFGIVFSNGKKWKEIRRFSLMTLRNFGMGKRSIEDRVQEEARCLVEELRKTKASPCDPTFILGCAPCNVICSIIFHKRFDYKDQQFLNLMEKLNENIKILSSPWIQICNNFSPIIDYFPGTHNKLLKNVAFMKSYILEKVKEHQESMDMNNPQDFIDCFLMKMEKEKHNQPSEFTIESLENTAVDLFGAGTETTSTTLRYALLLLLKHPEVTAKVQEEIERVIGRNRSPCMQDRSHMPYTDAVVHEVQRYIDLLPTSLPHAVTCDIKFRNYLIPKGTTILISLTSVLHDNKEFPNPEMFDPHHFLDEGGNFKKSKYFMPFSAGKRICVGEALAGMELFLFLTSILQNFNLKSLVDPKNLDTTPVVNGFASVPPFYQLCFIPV
Chain of Protein mono-ADP-ribosyltransferase PARP14 (Q460N5 whole entry): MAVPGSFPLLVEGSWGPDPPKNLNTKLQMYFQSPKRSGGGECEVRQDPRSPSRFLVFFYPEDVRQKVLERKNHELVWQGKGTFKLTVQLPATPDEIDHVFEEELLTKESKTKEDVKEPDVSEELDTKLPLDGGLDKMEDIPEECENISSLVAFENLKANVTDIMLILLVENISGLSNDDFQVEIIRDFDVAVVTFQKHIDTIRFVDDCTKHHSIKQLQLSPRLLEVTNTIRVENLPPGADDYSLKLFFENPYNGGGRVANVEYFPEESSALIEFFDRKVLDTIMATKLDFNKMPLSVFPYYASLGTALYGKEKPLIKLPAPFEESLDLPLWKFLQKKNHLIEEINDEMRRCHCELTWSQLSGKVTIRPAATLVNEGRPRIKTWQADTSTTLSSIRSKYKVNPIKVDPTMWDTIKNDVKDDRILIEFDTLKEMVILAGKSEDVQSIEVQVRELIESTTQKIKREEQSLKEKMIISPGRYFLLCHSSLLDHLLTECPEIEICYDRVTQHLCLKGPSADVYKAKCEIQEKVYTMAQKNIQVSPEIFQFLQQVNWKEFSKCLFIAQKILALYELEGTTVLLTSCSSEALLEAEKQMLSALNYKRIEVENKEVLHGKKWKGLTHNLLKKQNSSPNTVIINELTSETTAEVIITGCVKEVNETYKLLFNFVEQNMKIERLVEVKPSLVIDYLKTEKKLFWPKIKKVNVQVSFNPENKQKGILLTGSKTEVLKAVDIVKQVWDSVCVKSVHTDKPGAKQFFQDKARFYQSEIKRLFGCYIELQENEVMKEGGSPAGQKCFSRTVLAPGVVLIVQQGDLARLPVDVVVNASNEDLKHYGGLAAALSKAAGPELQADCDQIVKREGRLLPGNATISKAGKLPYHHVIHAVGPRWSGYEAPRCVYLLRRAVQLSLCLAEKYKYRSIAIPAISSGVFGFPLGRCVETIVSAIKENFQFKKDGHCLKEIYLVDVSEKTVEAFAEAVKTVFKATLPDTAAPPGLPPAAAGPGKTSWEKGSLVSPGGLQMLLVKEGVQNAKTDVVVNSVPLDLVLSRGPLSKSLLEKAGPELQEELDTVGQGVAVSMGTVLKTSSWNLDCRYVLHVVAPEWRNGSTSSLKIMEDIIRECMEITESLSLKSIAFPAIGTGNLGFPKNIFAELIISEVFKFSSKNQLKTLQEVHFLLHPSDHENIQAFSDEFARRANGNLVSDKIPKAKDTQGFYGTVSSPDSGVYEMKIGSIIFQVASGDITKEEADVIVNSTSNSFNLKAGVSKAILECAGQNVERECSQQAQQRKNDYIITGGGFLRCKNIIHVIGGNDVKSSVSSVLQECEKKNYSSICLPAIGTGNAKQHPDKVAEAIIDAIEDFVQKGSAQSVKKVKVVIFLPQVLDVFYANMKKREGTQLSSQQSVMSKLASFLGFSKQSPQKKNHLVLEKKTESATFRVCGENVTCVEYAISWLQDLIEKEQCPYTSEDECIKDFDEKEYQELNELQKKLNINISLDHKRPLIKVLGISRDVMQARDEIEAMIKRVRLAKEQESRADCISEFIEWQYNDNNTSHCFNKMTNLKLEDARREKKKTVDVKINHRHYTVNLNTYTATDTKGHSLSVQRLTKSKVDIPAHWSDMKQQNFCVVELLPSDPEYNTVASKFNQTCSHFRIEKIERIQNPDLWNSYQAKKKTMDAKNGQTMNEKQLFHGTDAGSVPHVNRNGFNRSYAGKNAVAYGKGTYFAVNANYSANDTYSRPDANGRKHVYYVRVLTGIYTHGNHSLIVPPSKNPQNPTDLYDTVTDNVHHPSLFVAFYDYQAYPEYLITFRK
Chain of Cytochrome P450 2C19 (P33261 whole entry): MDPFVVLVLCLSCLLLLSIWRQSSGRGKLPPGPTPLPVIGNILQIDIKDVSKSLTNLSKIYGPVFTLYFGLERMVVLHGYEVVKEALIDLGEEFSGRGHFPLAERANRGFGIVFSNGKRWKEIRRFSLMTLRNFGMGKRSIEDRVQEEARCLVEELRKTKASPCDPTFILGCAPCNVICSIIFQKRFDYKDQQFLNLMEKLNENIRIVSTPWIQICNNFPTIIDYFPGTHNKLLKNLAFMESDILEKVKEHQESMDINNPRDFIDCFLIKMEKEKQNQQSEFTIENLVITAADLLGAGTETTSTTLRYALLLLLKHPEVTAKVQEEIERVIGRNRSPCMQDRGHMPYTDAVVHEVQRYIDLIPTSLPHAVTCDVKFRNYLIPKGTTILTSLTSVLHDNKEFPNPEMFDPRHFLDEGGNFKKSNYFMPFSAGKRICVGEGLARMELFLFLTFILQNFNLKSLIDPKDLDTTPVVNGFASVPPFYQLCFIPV
Chain of Poly [ADP-ribose] polymerase 1 (P09874 whole entry): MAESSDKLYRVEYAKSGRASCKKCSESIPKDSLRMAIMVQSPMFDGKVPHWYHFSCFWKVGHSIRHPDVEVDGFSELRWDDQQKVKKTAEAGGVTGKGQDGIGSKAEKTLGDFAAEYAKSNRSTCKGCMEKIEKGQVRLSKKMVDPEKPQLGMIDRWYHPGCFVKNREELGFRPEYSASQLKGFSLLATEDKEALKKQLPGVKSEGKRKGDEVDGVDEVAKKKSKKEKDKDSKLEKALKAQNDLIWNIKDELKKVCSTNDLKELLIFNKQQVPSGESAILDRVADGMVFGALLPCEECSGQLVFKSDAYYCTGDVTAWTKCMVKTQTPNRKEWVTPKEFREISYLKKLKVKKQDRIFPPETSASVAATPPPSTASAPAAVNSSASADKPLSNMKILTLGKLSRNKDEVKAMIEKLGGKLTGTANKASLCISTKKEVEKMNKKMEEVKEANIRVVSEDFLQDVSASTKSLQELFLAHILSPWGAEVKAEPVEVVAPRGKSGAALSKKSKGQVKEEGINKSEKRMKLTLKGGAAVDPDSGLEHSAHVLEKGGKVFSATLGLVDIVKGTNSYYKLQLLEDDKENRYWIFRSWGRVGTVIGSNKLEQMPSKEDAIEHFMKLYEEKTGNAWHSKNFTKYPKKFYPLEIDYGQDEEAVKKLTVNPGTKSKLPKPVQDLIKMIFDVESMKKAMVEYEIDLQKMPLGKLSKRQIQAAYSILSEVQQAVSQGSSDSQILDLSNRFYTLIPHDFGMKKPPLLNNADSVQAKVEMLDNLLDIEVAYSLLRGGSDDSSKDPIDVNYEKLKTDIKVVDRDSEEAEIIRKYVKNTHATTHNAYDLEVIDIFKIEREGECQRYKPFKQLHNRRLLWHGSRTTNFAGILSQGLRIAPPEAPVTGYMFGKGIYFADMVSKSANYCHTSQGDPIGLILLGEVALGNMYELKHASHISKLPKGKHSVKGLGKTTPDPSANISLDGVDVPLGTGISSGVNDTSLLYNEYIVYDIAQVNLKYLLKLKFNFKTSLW

SMILES: O=C(CCOC[C@@H]1CCN1c1cn[nH]c(=O)c1C(F)(F)F)N1CCN2c3ncc(C(F)(F)F)cc3OC[C@@H]2C1
- IC50 [1]: 0.56 nM
- Activity (MDA-MB-436 [2]): inactive
- IC50 (MDA-MB-436 [3]): > 10 µM
- IC50 [4]: 492 nM
- IC50 [5]: 221 nM
- IC50 [6]: > 1000 nM
- IC50 [7]: > 1000 nM
- clearance [8]: 49.2 mL/min/kg
- AUC at 24 h [9]: 680 ng·h/mL
- Vd [10]: 1.77 L/kg
- Tmax [11]: 24 min
- AUC [12]: 1146 ng·h/mL
- bioavailability [13]: 33.9%
- Activity [14]: Non-Toxic
- clearance [15]: 7.5 mL/min/kg
- half-life [16]: 78 min
- AUC at 24 h [17]: 3480 ng·h/mL
- Vd [18]: 0.948 L/kg
- Cmax [19]: 2.3 µg/mL
- solubility thermodynamic [20]: 601 µg/mL (≈ 1070 µM)
- solubility thermodynamic [21]: 114 µg/mL (≈ 203 µM)
- Papp B→A at 2 h [22]: 3.3 ×10⁻⁶ cm/s
- Papp at 2 h [23]: 0.852 ×10⁻⁶ cm/s
- fraction unbound at 1 h, 2 µM [24]: 0.002
- fraction unbound at 1 h, 2 µM [25]: 0.004
- fraction unbound at 1 h, 2 µM [26]: 0.019
- CLint scaled [27]: 19.8 mL/min/kg
- CLint scaled [28]: 88.8 mL/min/kg
- IC50 (Cytochrome P450 2C9): 2010 nM
- IC50 (Cytochrome P450 2C19): 7.55 µM
- IC50 (Cytochrome P450 3A4): > 30 µM
